Source: PMC12432858, “Longitudinal imaging of therapeutic enzyme expression after gene therapy for Fabry disease using positron emission tomography and the radiotracer [^18F]AGAL” (Molecular Therapy, 2024)

Target: T1, human α-galactosidase A (GLA; α-Gal A) (Homo sapiens, UniProt P06280)
T1 construct: heart tissue cryosections; no tag stated
T1 sequence (P06280 32-429): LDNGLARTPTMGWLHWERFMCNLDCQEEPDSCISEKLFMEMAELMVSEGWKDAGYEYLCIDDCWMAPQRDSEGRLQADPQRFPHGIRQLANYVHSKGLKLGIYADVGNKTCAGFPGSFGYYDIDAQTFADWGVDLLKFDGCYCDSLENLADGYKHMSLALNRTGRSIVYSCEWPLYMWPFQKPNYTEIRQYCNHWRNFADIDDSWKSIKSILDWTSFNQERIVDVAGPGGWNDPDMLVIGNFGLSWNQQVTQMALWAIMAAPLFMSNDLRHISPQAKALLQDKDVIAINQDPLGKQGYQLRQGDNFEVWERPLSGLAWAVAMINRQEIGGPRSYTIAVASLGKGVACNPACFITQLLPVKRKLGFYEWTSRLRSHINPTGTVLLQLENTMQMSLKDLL
Assay: saturation autoradiography on heart sections, one-site specific binding fit
Details: pH 5.0 McIlvaine buffer, 23 °C, 60 min; nonspecific binding defined with [19F]AGAL; active site; covalent (proposed); labelled compound; GLA in tissue sections of AAVGLA-treated Gla knockout mice

Kd: ~0.02 µM
Compound: O=C(CCCCCCCn1cc(CCCF)nn1)N1C2C(O)C(O)C(O)C(CO)C21 (stereo not shown) [[^18F]AGAL]
